Values quoted from earlier work in patent publication US20090054305A1, “Mixtures of Amylin and Insulin” (Novo Nordisk A/S, priority 2006, published 2009).
Ends that are not written are not given here.

conditions: treated test animals, e.g. provoking marked hyperlactemia followed by hyperglycemia

Row | Substance | amylin activity in vivo
1 | ^18Arg^25, 28Pro-h-amylin | amylin activity in vivo
2 | ^28Pro-h-amylin | amylin activity in vivo
3 | des-^1Lys-h-amylin (CNTATCATQRLANFLVHSSNNFGAILSSTNVGSNTY; not fully specified (C-terminus, bridges); ends and bridges not checked; UniProt P10997 34-70, looked up, variant K1*) [human amylin analog where the lysine in position 1 is lacking] | amylin activity in vivo
4 | des-^1Lys^18Arg^25, 28Pro-h-amylin | amylin activity in vivo

conditions: compared to human amylin

Row | Substance | solubility and stability characteristics
5 | ^18Arg^25, 28Pro-h-amylin | more desirable solubility and stability characteristics
6 | ^25Pro^26Val^28, 29Pro-h-amylin | more desirable solubility and stability characteristics
